# ChEMBL document CHEMBL4507270 (2021)
# Assays:
# [1] = target: Serine/threonine-protein kinase DCLK2 (Homo sapiens) (UniProt Q8N568)
# [2] = target: Myosin-IIIb (Homo sapiens) (UniProt Q8WXR4)
# [3] = target: Calcium/calmodulin-dependent protein kinase type 1D (Homo sapiens) (UniProt Q8IU85)
# [4] = target: Serine/threonine-protein kinase/endoribonuclease IRE1 (Homo sapiens) (UniProt O75460)
# [5] = target: Serine/threonine-protein kinase SBK1 (Homo sapiens) (UniProt Q52WX2)
# Mu-type opioid receptor = Mu-type opioid receptor (Homo sapiens, UniProt P35372); conditions: Compound concentration 10.0 uM
# [6] = target: Mitogen-activated protein kinase kinase kinase 4 (Homo sapiens) (UniProt Q9Y6R4)
# [7] = target: Megakaryocyte-associated tyrosine-protein kinase (Homo sapiens) (UniProt P42679)
# [8] = target: Mitogen-activated protein kinase kinase kinase 12 (Homo sapiens) (UniProt Q12852)
# [9] = tested on: Mast/stem cell growth factor receptor Kit (Homo sapiens), P10721 [V559D,T670I]
# [10] = target: 5-hydroxytryptamine receptor 2C (Homo sapiens) (UniProt P28335); conditions: Compound concentration 10.0 uM
# 5-hydroxytryptamine receptor 2C (Homo sapiens), sequence (P28335 whole entry): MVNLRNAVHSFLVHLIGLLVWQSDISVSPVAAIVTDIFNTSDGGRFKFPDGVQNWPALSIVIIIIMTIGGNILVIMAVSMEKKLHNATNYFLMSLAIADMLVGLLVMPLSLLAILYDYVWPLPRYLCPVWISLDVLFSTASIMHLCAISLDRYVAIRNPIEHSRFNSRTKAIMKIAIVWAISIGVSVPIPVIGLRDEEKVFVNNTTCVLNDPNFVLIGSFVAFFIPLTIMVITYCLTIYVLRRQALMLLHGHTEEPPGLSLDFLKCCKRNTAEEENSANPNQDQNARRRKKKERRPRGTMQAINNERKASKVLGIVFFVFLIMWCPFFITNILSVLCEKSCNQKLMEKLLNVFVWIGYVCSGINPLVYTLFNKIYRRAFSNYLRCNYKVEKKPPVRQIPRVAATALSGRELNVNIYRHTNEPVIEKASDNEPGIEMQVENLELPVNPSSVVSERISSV
# [11] = target: Calcium/calmodulin-dependent protein kinase kinase 2 (Homo sapiens) (UniProt Q96RR4)
# Calcium/calmodulin-dependent protein kinase kinase 2 (Homo sapiens), sequence (Q96RR4 2-588 limits assumed): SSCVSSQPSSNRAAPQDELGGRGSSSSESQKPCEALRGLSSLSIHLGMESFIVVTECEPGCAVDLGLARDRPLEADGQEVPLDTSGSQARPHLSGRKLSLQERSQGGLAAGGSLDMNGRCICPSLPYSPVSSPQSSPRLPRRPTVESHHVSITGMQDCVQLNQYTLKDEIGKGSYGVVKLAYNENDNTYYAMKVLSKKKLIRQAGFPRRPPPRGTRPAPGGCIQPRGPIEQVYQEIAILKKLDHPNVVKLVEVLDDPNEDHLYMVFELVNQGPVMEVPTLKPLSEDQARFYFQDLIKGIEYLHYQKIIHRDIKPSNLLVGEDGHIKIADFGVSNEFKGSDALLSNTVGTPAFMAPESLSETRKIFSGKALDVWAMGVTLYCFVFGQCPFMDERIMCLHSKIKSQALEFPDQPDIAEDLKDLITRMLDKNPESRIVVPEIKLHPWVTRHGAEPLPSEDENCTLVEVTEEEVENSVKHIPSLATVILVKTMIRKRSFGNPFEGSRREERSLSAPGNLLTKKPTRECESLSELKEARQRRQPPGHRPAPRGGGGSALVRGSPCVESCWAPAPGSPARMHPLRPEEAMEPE
# [12] = target: Aurora kinase A (Homo sapiens) (UniProt O14965)
# [13] = target: Dual specificity protein kinase CLK2 (Homo sapiens) (UniProt P49760)
# [14] = target: Transient receptor potential cation channel subfamily M member 6 (Homo sapiens) (UniProt Q9BX84)
# [15] = target: Mitogen-activated protein kinase kinase kinase 15 (Homo sapiens) (UniProt Q6ZN16)
# Mitogen-activated protein kinase kinase kinase 15 (Homo sapiens), sequence (Q6ZN16 whole entry): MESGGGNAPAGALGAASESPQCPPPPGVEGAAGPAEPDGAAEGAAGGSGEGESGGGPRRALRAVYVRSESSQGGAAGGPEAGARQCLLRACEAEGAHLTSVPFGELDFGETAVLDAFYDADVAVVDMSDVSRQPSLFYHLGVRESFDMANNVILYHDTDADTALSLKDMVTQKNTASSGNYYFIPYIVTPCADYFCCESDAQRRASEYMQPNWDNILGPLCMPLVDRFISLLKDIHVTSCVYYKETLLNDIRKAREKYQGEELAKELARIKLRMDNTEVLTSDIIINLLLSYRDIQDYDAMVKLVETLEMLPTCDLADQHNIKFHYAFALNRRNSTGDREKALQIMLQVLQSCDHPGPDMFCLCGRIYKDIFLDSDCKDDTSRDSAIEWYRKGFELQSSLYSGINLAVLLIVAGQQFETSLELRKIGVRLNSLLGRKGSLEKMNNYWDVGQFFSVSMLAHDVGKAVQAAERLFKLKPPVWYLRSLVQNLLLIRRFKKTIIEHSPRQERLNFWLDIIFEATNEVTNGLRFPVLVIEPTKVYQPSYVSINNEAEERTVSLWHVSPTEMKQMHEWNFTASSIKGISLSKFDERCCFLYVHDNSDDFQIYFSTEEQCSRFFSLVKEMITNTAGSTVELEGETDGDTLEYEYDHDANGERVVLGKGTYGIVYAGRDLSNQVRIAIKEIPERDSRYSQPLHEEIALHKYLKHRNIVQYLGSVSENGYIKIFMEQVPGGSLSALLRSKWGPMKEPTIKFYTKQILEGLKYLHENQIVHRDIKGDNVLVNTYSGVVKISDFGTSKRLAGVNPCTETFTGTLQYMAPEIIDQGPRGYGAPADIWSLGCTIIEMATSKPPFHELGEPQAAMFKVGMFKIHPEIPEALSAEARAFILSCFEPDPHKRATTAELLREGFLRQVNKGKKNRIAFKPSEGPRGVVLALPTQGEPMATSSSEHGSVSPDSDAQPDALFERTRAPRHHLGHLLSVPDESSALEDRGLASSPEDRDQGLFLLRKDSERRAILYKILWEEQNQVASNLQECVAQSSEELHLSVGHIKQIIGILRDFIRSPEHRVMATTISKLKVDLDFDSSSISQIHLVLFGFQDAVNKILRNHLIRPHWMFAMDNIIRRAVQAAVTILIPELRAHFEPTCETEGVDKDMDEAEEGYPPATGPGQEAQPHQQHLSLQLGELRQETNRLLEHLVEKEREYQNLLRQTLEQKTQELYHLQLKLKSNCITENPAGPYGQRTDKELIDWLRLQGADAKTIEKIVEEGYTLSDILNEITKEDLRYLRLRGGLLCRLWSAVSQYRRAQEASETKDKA
# [16] = target: Wee1-like protein kinase 2 (Homo sapiens) (UniProt P0C1S8)
# [17] = GPCRScan assay: inhibition of GABA/PBR; set-up: species or system Rattus norvegicus; radioligand conc. used [nm] 0.3 – 2.0, parental cells brain tissue
# [18] = target: Cyclin-G-associated kinase (Homo sapiens) (UniProt O14976)
# [19] = target: Cyclin-dependent kinase 15 (Homo sapiens) (UniProt Q96Q40)
# Cyclin-dependent kinase 15 (Homo sapiens), sequence (Q96Q40 whole entry): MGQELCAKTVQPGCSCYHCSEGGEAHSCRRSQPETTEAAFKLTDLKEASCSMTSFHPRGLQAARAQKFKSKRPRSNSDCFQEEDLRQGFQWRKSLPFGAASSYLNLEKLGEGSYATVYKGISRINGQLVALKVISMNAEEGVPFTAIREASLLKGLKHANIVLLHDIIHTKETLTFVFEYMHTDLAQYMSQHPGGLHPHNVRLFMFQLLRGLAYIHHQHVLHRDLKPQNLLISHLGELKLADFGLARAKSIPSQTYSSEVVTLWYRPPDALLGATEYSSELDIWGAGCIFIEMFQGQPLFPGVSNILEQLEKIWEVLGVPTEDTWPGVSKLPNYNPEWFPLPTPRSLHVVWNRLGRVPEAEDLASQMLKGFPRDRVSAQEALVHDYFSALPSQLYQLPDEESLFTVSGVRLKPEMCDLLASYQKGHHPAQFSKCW
# [20] = tested on: Fibroblast growth factor receptor 3 (Homo sapiens), P22607 [G697C]
# [21] = target: Serine/threonine-protein kinase NIM1 (Homo sapiens) (UniProt Q8IY84)
# [22] = target: Serine/threonine-protein kinase 4 (Homo sapiens) (UniProt Q13043)
# [23] = target: cAMP-dependent protein kinase catalytic subunit beta (Homo sapiens) (UniProt P22694)
# [24] = target: Ephrin type-A receptor 1 (Homo sapiens) (UniProt P21709)
# [25] = tested on: Phosphatidylinositol 4,5-bisphosphate 3-kinase catalytic subunit alpha isoform (Homo sapiens), P42336 [I800L]
# [26] = target: Serine/threonine-protein kinase PAK 5 (Homo sapiens) (UniProt Q9P286)
# [27] = tested on: Tyrosine-protein kinase ABL1 (Homo sapiens), P00519 [F317L]
# [28] = target: Casein kinase II subunit alpha (Homo sapiens) (UniProt P68400)
# [29] = target: Tyrosine-protein kinase Fyn (Homo sapiens) (UniProt P06241)
# Tyrosine-protein kinase Fyn (Homo sapiens), sequence (P06241 2-537 limits assumed): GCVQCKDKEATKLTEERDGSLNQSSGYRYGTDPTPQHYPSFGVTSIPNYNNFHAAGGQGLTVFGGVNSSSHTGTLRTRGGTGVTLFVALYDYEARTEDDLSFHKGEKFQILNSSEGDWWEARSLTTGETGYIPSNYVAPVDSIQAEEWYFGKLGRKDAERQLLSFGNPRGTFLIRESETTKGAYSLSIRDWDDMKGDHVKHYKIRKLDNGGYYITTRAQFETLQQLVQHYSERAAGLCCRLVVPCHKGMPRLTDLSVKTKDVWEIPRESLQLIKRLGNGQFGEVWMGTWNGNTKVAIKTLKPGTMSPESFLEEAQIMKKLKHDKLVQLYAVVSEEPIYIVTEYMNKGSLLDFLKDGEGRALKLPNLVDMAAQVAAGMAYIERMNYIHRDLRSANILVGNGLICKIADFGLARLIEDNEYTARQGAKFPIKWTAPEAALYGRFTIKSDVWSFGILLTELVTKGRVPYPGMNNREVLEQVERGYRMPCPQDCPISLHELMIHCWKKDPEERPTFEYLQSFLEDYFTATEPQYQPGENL
# [30] = target: Serine/threonine-protein kinase Nek3 (Homo sapiens) (UniProt P51956)
# [31] = target: Calcium-dependent protein kinase 1 (Plasmodium falciparum) (UniProt P62344)
# [32] = target: Serine/threonine-protein kinase DCLK3 (Homo sapiens) (UniProt Q9C098)
# [33] = target: Non-receptor tyrosine-protein kinase TNK1 (Homo sapiens) (UniProt Q13470)
# [34] = tested on: Epidermal growth factor receptor (Homo sapiens), P00533 [L858R]
# [35] = target: Phosphatidylinositol 4-kinase beta (Homo sapiens) (UniProt Q9UBF8)
# [36] = tested on: Receptor-type tyrosine-protein kinase FLT3 (Homo sapiens), P36888 [R834Q]
# [37] = tested on: Tyrosine-protein kinase ABL1 (Homo sapiens), P00519 [Q252H]
# [38] = target: Protein-tyrosine kinase 2-beta (Homo sapiens) (UniProt Q14289)
# [39] = target: Ephrin type-A receptor 6 (Homo sapiens) (UniProt Q9UF33)
# [40] = target: Inhibitor of nuclear factor kappa-B kinase subunit beta (Homo sapiens) (UniProt O14920)
# [41] = target: Casein kinase I isoform gamma-3 (Homo sapiens) (UniProt Q9Y6M4)
# Casein kinase I isoform gamma-3 (Homo sapiens), sequence (Q9Y6M4 whole entry, looked up, canonical isoform): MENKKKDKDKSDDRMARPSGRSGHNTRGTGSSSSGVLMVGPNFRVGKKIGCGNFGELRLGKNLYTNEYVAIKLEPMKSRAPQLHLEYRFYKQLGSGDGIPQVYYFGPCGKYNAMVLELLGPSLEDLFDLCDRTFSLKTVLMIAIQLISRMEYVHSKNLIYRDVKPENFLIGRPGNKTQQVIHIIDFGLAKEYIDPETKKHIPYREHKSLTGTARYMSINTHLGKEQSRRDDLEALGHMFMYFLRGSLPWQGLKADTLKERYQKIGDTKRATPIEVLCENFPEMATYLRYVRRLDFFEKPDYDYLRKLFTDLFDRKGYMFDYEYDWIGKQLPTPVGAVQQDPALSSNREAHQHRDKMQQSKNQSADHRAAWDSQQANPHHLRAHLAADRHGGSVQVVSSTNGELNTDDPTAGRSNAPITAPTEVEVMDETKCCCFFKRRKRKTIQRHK
# [42] = target: Muscle, skeletal receptor tyrosine-protein kinase (Homo sapiens) (UniProt O15146)
# Muscle, skeletal receptor tyrosine-protein kinase (Homo sapiens), sequence (O15146 whole entry): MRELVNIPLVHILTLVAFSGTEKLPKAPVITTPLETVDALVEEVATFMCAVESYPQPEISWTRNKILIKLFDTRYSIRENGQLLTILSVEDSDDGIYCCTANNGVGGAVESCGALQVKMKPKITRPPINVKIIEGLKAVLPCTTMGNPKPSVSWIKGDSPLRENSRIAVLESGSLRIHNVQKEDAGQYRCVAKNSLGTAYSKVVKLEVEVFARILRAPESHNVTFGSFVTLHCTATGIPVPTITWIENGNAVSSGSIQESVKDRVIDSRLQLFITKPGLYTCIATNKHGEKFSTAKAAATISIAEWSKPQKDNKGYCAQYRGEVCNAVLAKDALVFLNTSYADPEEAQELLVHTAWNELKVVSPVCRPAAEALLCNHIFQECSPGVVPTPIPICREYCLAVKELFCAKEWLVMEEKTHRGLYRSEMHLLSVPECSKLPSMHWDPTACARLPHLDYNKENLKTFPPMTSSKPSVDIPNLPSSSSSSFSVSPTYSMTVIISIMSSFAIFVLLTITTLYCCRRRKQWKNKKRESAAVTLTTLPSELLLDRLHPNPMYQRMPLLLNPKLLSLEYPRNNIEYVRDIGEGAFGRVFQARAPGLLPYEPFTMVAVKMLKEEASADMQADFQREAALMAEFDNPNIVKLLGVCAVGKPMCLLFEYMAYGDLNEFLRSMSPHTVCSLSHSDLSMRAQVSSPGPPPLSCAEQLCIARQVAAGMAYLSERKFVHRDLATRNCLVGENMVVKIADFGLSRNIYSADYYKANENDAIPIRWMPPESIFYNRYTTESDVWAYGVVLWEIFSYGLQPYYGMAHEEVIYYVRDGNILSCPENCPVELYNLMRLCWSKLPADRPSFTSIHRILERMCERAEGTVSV
# [43] = target: Muscarinic acetylcholine receptor M2 (Homo sapiens) (UniProt P08172); conditions: Compound concentration 10.0 uM
# [44] = target: Serine/threonine-protein kinase PAK 6 (Homo sapiens) (UniProt Q9NQU5)
# [45] = Compound concentration 1000.0 nM
# [46] = Compound concentration 100.0 nM
# Calcium/calmodulin-dependent protein kinase type 1D (Homo sapiens), sequence (Q8IU85 whole entry, looked up): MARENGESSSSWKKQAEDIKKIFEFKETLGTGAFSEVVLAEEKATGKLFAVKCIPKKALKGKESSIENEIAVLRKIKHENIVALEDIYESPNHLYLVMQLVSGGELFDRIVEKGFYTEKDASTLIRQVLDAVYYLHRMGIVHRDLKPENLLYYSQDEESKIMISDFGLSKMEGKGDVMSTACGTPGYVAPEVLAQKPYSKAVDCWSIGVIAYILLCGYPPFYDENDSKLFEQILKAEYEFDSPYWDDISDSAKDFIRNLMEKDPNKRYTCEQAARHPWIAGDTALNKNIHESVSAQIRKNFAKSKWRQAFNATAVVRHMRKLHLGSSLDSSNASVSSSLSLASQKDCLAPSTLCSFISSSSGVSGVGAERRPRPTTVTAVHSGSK
compound,measurement,setting,value
Cc1cc(NC(=O)c2cccc(S(F)(F)(F)(F)F)c2)cc(-n2ccn3nc(-c4cccnc4)cc23)c1 [BAY-309],residual activity,[1]; [45],100%
same,residual activity,[2]; [45],73.8%
same,residual activity,[3]; [45],94.9%
same,residual activity,[4]; [45],99.2%
same,residual activity,[5]; [45],100%
same,inhibition,Mu-type opioid receptor,60%
same,residual activity,[6]; [45],53.6%
same,residual activity,[7]; [45],100%
same,residual activity,[8]; [45],67.7%
same,residual activity,[9]; [45],91.3%
same,inhibition,[10],66%
same,residual activity,[11]; [45],99.6%
same,residual activity,[12]; [45],84.9%
same,residual activity,[13]; [45],100%
same,residual activity,[14]; [45],97%
same,residual activity,[15]; [45],100%
same,residual activity,[16]; [45],100%
same,Ki,[17],10.9 nM
same,pKi,[17],8.03
same,residual activity,[18]; [45],100%
same,residual activity,[19]; [45],59.9%
same,residual activity,[20]; [45],100%
same,residual activity,[21]; [45],100%
same,residual activity,[22]; [45],100%
same,residual activity,[23]; [45],100%
same,residual activity,[24]; [45],100%
same,residual activity,[25]; [45],96%
same,residual activity,[26]; [45],100%
same,residual activity,[27]; [45],100%
same,residual activity,[28]; [45],66.7%
same,residual activity,[29]; [45],81.3%
same,residual activity,[30]; [45],50.5%
same,residual activity,[31]; [45],95.1%
same,residual activity,[32]; [45],100%
same,residual activity,[33]; [45],95%
same,residual activity,[34]; [45],100%
same,residual activity,[35]; [45],78.6%
same,residual activity,[36]; [45],100%
same,residual activity,[37]; [45],100%
same,residual activity,[38]; [45],100%
same,residual activity,[39]; [45],100%
same,residual activity,[40]; [45],65.5%
same,residual activity,[41]; [45],100%
same,residual activity,[42]; [45],82%
same,inhibition,[43],32.7%
same,residual activity,[44]; [45],100%
Cc1cc(C)c(-n2ccn3nc(-c4cccnc4)cc23)cc1NC(=O)c1cc(C#N)cc(S(F)(F)(F)(F)F)c1 [BAY-826],residual activity,[1]; [46],90.6%
same,residual activity,[2]; [46],82.4%
same,residual activity,[3]; [46],71.6%
same,residual activity,[4]; [46],68.3%
same,residual activity,[5]; [46],82.2%
same,inhibition,Mu-type opioid receptor,20.7%
same,residual activity,[6]; [46],98.1%
same,residual activity,[7]; [46],80.4%
same,residual activity,[8]; [46],82.5%
same,residual activity,[9]; [46],67.9%
same,inhibition,[10],34.5%
same,residual activity,[11]; [46],89%
same,residual activity,[12]; [46],75.9%
same,residual activity,[13]; [46],91%
same,residual activity,[14]; [46],80.2%
same,residual activity,[15]; [46],48.8%
same,residual activity,[16]; [46],77.4%
same,Ki,[17],217 nM
same,residual activity,[18]; [46],83.3%
same,residual activity,[19]; [46],76%
same,residual activity,[20]; [46],100%
same,residual activity,[21]; [46],98.9%
same,residual activity,[22]; [46],88.5%
same,residual activity,[23]; [46],100%
same,residual activity,[24]; [46],100%
same,residual activity,[25]; [46],92.8%
same,residual activity,[26]; [46],83.5%
same,residual activity,[27]; [46],26.6%
same,residual activity,[28]; [46],74.2%
same,residual activity,[29]; [46],97.5%
same,residual activity,[30]; [46],70.7%
same,residual activity,[31]; [46],88.9%
same,residual activity,[32]; [46],83.5%
same,residual activity,[33]; [46],87.6%
same,residual activity,[34]; [46],83.9%
same,residual activity,[35]; [46],64.7%
same,residual activity,[36]; [46],62.3%
same,residual activity,[37]; [46],72.9%
same,residual activity,[38]; [46],81.4%
same,residual activity,[39]; [46],82.6%
same,residual activity,[40]; [46],100%
same,residual activity,[41]; [46],93.7%
same,residual activity,[42]; [46],78.6%
same,inhibition,[43],10.5%
same,residual activity,[44]; [46],70.1%
